Data from US7217794B2, “Compounds and methods for treatment of thrombosis” (Daiamed, Inc., priority 2003, dated 2007).
Where two headings read alike, the source gives them in different places. Each block holds one compound with its values, some of them ahead of it.

Legend:
Factor Xa = Factor Xa (Homo sapiens, UniProt P00742); experiment: Factor Xa enzyme inhibition assay (purified enzyme); format: biochemical
thrombin = thrombin (Homo sapiens, UniProt P00734); experiment: Thrombin enzyme inhibition assay (purified enzyme); format: biochemical
native Factor XIa = molecular target: T1, native Factor XIa (Homo sapiens, UniProt P03951); experiment: Factor XIa enzyme inhibition assay (fluorogenic substrate pyroGlu-Pro-Arg-AMC); format: biochemical
T1 construct: cleavage generates the same light chain segment as is found for human Factor XIa protein; purchased Haematological Associates FXIA01
T1 sequence (P03951 388-625 limits assumed): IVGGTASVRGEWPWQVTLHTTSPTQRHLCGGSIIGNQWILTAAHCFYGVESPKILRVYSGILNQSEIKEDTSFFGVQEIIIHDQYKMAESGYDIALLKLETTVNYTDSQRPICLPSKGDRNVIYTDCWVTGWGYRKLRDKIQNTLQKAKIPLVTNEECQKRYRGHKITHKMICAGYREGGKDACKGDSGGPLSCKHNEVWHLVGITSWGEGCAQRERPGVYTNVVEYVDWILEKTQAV
T1 sequence (P03951 19-387 partner limits assumed): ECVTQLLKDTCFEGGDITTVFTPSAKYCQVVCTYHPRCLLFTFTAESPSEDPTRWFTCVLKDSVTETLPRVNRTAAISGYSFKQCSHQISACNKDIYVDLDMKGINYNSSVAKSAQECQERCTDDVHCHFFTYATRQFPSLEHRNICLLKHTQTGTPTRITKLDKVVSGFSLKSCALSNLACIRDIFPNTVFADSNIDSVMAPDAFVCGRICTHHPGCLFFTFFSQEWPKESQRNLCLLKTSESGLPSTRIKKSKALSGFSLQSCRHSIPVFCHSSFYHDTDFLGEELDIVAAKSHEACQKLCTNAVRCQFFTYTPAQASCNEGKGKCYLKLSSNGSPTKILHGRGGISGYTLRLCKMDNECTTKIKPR
Protocol: Potential inhibitors of Factor XIa were evaluated using a modification of the above assay. […] This substrate had the p-nitroanaline group replaced with 7-methylaminocoumarin (AMC). […] Inhibitors were tested by serial dilution over an appropriate range to yield a dose response curve for determination of the inhibitors' IC50 values. The assay mixture was incubated for 30 minutes at 30° C., and the fluorescent yield was measured using a PE-Wallac Victor 2 Plate Reader. Dose response curves were fit to Equation 1 in which A is the maximum inhibition, B is the minimum inhibition, C is the IC50, and D is the Hill coefficient.
Potential inhibitors of Factor XIa were evaluated using the following assay. […] This substrate had the p-nitroanaline group replaced with 7-methylaminocoumarin (AMC).
Inhibitors were tested by serial dilution over an appropriate range to yield a dose response curve for determination of the inhibitors' IC50 value. The assay mixture was incubated for 30 minutes at 30° C., and the fluorescent yield measured using a PE-Wallac VICTOR2™ Plate Reader. Dose response curves were fit to equation 1 below in which A is the maximum inhibition, B is the minimum inhibition, C is the IC50, and D is the Hill coefficient.

rat Factor XIa = experiment: Inhibition of rat Factor XIa compared with native human Factor XIa; format: biochemical; settings: rat Factor XIa vs native human Factor XIa
venous thrombosis = experiment: Rat venous thrombosis model (stenosis of inferior vena cava with hypotonic saline infusion); format: in vivo
Protocol: Compound 22 was administered as a continuous intravenous infusion via the femoral vein commenced 15 minutes prior to the thrombotic challenge. Thrombus mass was assessed at 60 minutes following challenge. Results are expressed as the percentage of the vehicle mean.
Briefly, male Sprague-Dawley rats (300–400 g) were anesthetized using ketamine/xylazine I.M. A midline laparotomy was performed, and the vena cava was visualized and gently separated from the descending aorta using cotton swabs. Both iliolumbar veins were ligated with suture (3–0 silk). A loose ligature (3–0 silk) was placed around the vena cava distal to the renal veins. A 25G butterfly bent at a 90-degree angle and attached to a 5 cc syringe filled with 2.5 mL of hypotonic saline (0.225%) was inserted into the vena cava at the level of the iliolumbar veins and glued into place using VETBOND™. A 26G needle bent to a 90-degree angle was then tied tightly to the vena cava, using the loose ligature. An atraumatic clamp was placed on the vena cava proximal to the iliac bifurcation, and the hypotonic saline manually infused at a rate of 10 mL/minutes. The atraumatic clamp was removed, along with the 26G needle, creating a 26G stenosis. Organs were carefully replaced, and animals were kept normothermic until sacrifice. Animals were sacrificed by anesthetic overdose at 10 or 60 minutes post thrombus induction. Following sacrifice, the vena cava was isolated using hemostats, and the clot(s) was dissected out. Clots were removed, blotted on gauze, and then immediately weighed using an analytical balance.
Compounds under investigation along with vehicles and positive controls (heparin, enoxaparin) were administered intravenously via a catheter (PE-50 tubing) implanted in the jugular or femoral vein. In some studies, rats were administered a bolus of the test article (4 mL/kg) via the venous catheter immediately prior to initiation of intravenous infusion (4 mL/kg/h). The rats were subjected to the challenge 15 minutes post bolus/infusion initiation. All test article infusions continued to the end of the study period.
Administration of compound XLXI commenced 15 minutes prior to thrombotic challenge, with determination of thrombus mass at 60 minutes post challenge.

[1] = Table 12, read-out: Thrombin IC50
[2] = Table 12, compounds of formula I (R^0 is 2-thiazole), read-out: FXIa IC50

Factor Xa, sequence (P00742 235-488 limits assumed): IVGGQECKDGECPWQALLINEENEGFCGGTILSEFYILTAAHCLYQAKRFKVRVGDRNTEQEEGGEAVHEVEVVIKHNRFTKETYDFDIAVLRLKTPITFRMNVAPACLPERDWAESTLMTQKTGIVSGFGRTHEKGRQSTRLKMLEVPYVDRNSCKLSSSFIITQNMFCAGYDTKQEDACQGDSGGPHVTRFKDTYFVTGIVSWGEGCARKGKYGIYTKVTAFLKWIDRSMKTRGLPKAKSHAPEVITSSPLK
Factor Xa, sequence (P00742 41-179 partner limits assumed): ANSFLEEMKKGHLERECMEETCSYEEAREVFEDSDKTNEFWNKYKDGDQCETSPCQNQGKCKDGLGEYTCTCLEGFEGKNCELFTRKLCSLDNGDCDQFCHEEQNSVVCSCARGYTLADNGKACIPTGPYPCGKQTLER

IC50 (Factor Xa; Table 12, read-out: FXa IC50): 1190 nM | IC50 (thrombin; [1]): 253 nM
SMILES: CC(C)C(NC(=O)C(O)c1ccccc1)C(=O)NC(CCCNC(=N)N)C(=O)c1nccs1 (stereo not shown)

IC50 (Factor Xa; Table 12, read-out: FXa IC50): 2360 nM | IC50 (thrombin; [1]): 225 nM | IC50 (native Factor XIa; [2]): 116 nM
SMILES: CC(C)C(NC(=O)C(O)c1cccc(Cl)c1)C(=O)NC(CCCNC(=N)N)C(=O)c1nccs1 (stereo not shown)

IC50 (Factor Xa; Table 12, read-out: FXa IC50): 31 nM | IC50 (thrombin; [1]): 20 nM | IC50 (native Factor XIa; [2]): 5 nM
SMILES: COC(=O)c1cccc(CS(=O)(=O)NC(C(=O)NC(CC(C)C)C(=O)NC(CCCNC(=N)N)C(=O)c2nccs2)C2CCCCC2)c1 (stereo not shown)

The next lines start with the compound.

SMILES: CC(C)CC(NC(=O)NCc1ccc(Cl)c(Cl)c1)C(=O)NC(C(=O)NC(CCCNC(=N)N)C(=O)c1nccs1)C(C)C (stereo not shown)
IC50 (Factor Xa; Table 12, read-out: FXa IC50): 20000 nM | IC50 (thrombin; [1]): 615 nM | IC50 (native Factor XIa): 64 nM

SMILES: CCC(C)C(NC(=O)C(CC(C)C)NC(=O)NCc1ccc(Cl)c(Cl)c1)C(=O)NC(CCCNC(=N)N)C(=O)c1nccs1 (stereo not shown)
IC50 (Factor Xa): 84900 nM | IC50 (thrombin): 2650 nM | IC50 (native Factor XIa): 78 nM

SMILES: CC(C)[C@H](NC(=O)[C@H](Cc1cccnc1)NC(=O)N[C@H](C)c1ccc(Br)cc1)C(=O)N[C@@H](CCCNC(=N)N)C(=O)c1nccs1 [Compound 22]
specificity for rat Factor XIa relative to native human Factor XIa (fold less) (rat Factor XIa): 11 fold | effect on thrombus formation (venous thrombosis; continuous intravenous administration begun 15 minutes before thrombotic challenge, thrombus mass at 60 minutes post challenge): suppressed the thrombus formation | total dose exposure at which efficacy was observed (venous thrombosis; continuous intravenous infusion, thrombus mass at 60 minutes post challenge): 1.4 mg/kg | efficacy in rat model of venous thrombosis (venous thrombosis; intravenous): statistically significant efficacy | change in thrombus size at the higher dose (venous thrombosis; total dose exposure 4.0 mg/kg compared with 1.4 mg/kg): no further decrease in thrombus size
